According to PubChem BioAssay (NCI):
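Briefly, cells in 96-well plates were exposed to five compound concentrations for 48 h, and endpoints were estimated by linear interpolation. TGI is the concentration that stops growth completely.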

Columns and labels:
Assay in all cases: NCI tumour cell line growth inhibition, 48 h
[1] = test system: MOLT-4 leukemia
[2] = test system: SW-620 colon
[3] = test system: HCT-116 colon
[4] = test system: NCI-H226 lung
[5] = test system: CAKI-1 renal
[6] = test system: 786-0 renal
[7] = test system: NCI/ADR-RES ovarian
[8] = test system: OVCAR-3 ovarian
[9] = test system: SK-MEL-2 melanoma
[10] = test system: OVCAR-4 ovarian
[11] = test system: PC-3 prostate
[12] = test system: EKVX NSCLC
[13] = test system: HCC-2998 colon
[14] = test system: ACHN renal
[15] = test system: HCT-15 colon
[16] = test system: M14 melanoma
[17] = test system: HS 578T breast
[18] = test system: UACC-257 melanoma
[19] = test system: OVCAR-8 ovarian
[20] = test system: HOP-92 NSCLC
[21] = test system: RXF 393 renal
[22] = test system: KM12 colon
[23] = test system: RPMI-8226 leukemia
[24] = test system: NCI-H460 lung
[25] = test system: MDA-MB-231 breast
[26] = test system: UACC-62 melanoma
[27] = test system: A549 NSCLC
[28] = test system: MDA-MB-435
[29] = test system: MCF7 breast
[30] = test system: LOX IMVI melanoma
[31] = test system: SF-295 CNS
[32] = test system: MALME-3M melanoma
[33] = test system: SN12C renal
[34] = test system: UO-31 renal
[35] = test system: CCRF-CEM leukemia
[36] = test system: U251 CNS
[37] = test system: DU-145 prostate
[38] = test system: SK-MEL-5 melanoma
[39] = test system: K-562 leukemia
[40] = test system: HL-60(TB) leukemia
[41] = test system: HT29 colon
[42] = test system: HOP-62 NSCLC
[43] = test system: SF-539 CNS
[44] = test system: NCI-H23 lung
[45] = test system: MDA-N
[46] = test system: T-47D breast
[47] = test system: BT-549 breast
[48] = test system: OVCAR-5 ovarian
[49] = test system: NCI-H522 lung
[50] = test system: SNB-19 CNS
[51] = test system: COLO 205 colon
[52] = test system: SK-OV-3 ovarian
[53] = test system: SF-268 CNS
[54] = test system: SR leukemia
[55] = test system: IGROV1 ovarian
[56] = test system: TK-10 renal
[57] = test system: SK-MEL-28 melanoma
[58] = test system: A498 renal
[59] = test system: SNB-75 CNS

O=C1C(Cl)C(c2cccc(Br)c2)N1c1c(O)c(Cl)cc(Br)c1Cl (stereo not given)
TGI [1]: 35.7 µM | TGI [2]: 41.4 µM | TGI [3]: 27.6 µM | TGI [4]: 51.8 µM | TGI [5]: 81.1 µM | TGI [6]: > 100 µM | TGI [7]: 89.8 µM | TGI [8]: 36.1 µM | TGI [9]: 25 µM | TGI [10]: 24.7 µM | TGI [11]: 75.1 µM | TGI [12]: 39 µM | TGI [13]: 23.2 µM | TGI [14]: 37.6 µM | TGI [15]: 19.3 µM | TGI [16]: 27.1 µM | TGI [17]: 24 µM | TGI [18]: 43.9 µM | TGI [19]: > 100 µM | TGI [20]: 29 µM | TGI [21]: 24.3 µM | TGI [22]: 39.4 µM | TGI [23]: 37.9 µM | TGI [24]: 27.1 µM | TGI [25]: 46 µM | TGI [26]: 33.8 µM | TGI [27]: 40 µM | TGI [28]: 31.1 µM | TGI [29]: 25.8 µM | TGI [30]: 28.5 µM | TGI [31]: 31.1 µM | TGI [32]: 55.3 µM | TGI [33]: 28.3 µM | TGI [34]: 40 µM | TGI [35]: 41.3 µM | TGI [36]: 25.3 µM | TGI [37]: 32.9 µM | TGI [38]: 27.2 µM | TGI [39]: 37.1 µM | TGI [40]: 53.5 µM | TGI [41]: 23 µM | TGI [42]: 32.4 µM | TGI [43]: 32.6 µM | TGI [44]: 37.9 µM | TGI [45]: 53.3 µM | TGI [46]: 44.6 µM | TGI [47]: > 100 µM | TGI [48]: 56.5 µM | TGI [49]: 30 µM | TGI [50]: 11.5 µM | TGI [51]: 20.8 µM | TGI [52]: 55.8 µM | TGI [53]: 44.3 µM | TGI [54]: 56.3 µM | TGI [55]: 10.7 µM | TGI [56]: 51.4 µM

COCN1C(=O)[C@@H]2CCCN2C(=O)c2cc(Cl)ccc21
TGI [1]: > 100 µM | TGI [2]: > 100 µM | TGI [3]: > 100 µM | TGI [5]: > 100 µM | TGI [6]: > 100 µM | TGI [7]: > 100 µM | TGI [9]: > 100 µM | TGI [10]: > 100 µM | TGI [11]: > 100 µM | TGI [12]: > 100 µM | TGI [13]: > 100 µM | TGI [14]: > 100 µM | TGI [15]: > 100 µM | TGI [16]: > 100 µM | TGI [17]: > 100 µM | TGI [18]: > 100 µM | TGI [19]: > 100 µM | TGI [20]: > 100 µM | TGI [57]: > 100 µM | TGI [21]: > 100 µM | TGI [22]: > 100 µM | TGI [23]: > 100 µM | TGI [24]: > 100 µM | TGI [25]: > 100 µM | TGI [26]: > 100 µM | TGI [27]: > 100 µM | TGI [28]: > 100 µM | TGI [29]: > 100 µM | TGI [30]: > 100 µM | TGI [58]: > 100 µM | TGI [31]: > 100 µM | TGI [59]: > 100 µM | TGI [32]: > 100 µM | TGI [33]: > 100 µM | TGI [34]: > 100 µM | TGI [36]: > 100 µM | TGI [37]: > 100 µM | TGI [38]: > 100 µM | TGI [39]: > 100 µM | TGI [41]: > 100 µM | TGI [42]: > 100 µM | TGI [44]: > 100 µM | TGI [45]: > 100 µM | TGI [46]: > 100 µM | TGI [47]: > 100 µM | TGI [48]: > 100 µM | TGI [49]: > 100 µM | TGI [50]: > 100 µM | TGI [51]: > 100 µM | TGI [52]: > 100 µM | TGI [53]: > 100 µM | TGI [54]: > 100 µM | TGI [55]: > 100 µM | TGI [56]: > 100 µM
